# In ChEMBL document CHEMBL2417417, “Chemical variation from the neoantimycin depsipeptide assembly line” (Bioorg Med Chem Lett, 2013):
# The source made the active and inactive calls. No cut-off for these calls is given here.
# Test system: HT-29
# Assay: Antiproliferative activity against human HT-29 cells at 100 uM up to 15 hrs by non-radioactive cell proliferation assay
# Format: functional, cell-based
row,Compound,Activity
1,CC(C)[C@@H]1OC(=O)[C@@H](NC(=O)c2cccc(N)c2O)[C@H](C)OC(=O)[C@H](C(C)C)OC(=O)C(C)(C)[C@@H](O)[C@@H](Cc2ccccc2)OC1=O,inactive
2,CC(C)[C@@H]1OC(=O)[C@@H](NC(=O)c2cccc(NC=O)c2O)[C@H](C)OC(=O)[C@H](C(C)C)OC(=O)C(C)(C)[C@@H](O)[C@@H](Cc2ccccc2)OC1=O,inactive
3,CC[C@H](C)[C@@H]1OC(=O)C(C)(C)[C@@H](O)[C@@H](Cc2ccccc2)OC(=O)[C@H](C)OC(=O)[C@@H](NC(=O)c2cccc(NC=O)c2O)[C@H](C)OC1=O,inactive
4,CC[C@H](C)[C@@H]1OC(=O)C(C)(C)[C@@H](O)[C@@H](Cc2ccccc2)OC(=O)[C@H](C(C)C)OC(=O)[C@@H](NC(=O)c2cccc(NC=O)c2O)[C@H](C)OC1=O,inactive
5,CC[C@H](C)[C@@H]1OC(=O)C(C)(C)[C@@H](O)[C@@H](Cc2ccccc2)OC(=O)[C@H](C)OC(=O)[C@@H](NC(=O)c2cccc(N)c2O)[C@H](C)OC1=O,inactive
6,CC[C@H](C)[C@@H]1OC(=O)C(C)(C)[C@@H](O)[C@@H](Cc2ccccc2)OC(=O)[C@H](C(C)C)OC(=O)[C@@H](NC(=O)c2cccc(N)c2O)[C@H](C)OC1=O,inactive
